In one assay the target is T1, Lp-PLA2 in human plasma (Homo sapiens, UniProt Q13093).
T1 construct: from tissue; host or cells: pooled human plasma
T1 sequence (Q13093 22-441): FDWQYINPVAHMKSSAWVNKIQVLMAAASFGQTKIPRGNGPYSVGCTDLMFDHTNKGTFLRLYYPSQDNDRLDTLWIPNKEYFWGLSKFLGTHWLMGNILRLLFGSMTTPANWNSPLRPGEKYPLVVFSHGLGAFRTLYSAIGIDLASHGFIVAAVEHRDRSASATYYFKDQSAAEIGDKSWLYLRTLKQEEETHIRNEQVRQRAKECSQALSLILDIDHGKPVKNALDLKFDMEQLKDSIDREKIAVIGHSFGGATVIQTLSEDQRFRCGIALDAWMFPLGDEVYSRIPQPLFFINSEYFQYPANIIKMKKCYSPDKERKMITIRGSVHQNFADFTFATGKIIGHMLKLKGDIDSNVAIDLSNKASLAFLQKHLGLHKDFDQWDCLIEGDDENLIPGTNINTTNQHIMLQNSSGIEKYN
The assay is described as follows: Lp-PLA2 human plasma assay (Thio-PAF assay). The format is biochemical. To be noted: pooled human plasma; read-out: pIC50 values in the thio-PAF assay (converted). The method, boiled down:
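Pooled human plasma preincubated 30 min with compound, then 2-thio-PAF substrate added with CPM and NEM in 50 mM HEPES pH 7.4, 150 mM NaCl, 1 mM CHAPS. Quenched with TFA after 2 min, incubated 40 min at room temperature, and read by fluorescence at ex 380/em 485 nm. Values given as pIC50.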

The target in assay [1] is T2, recombinant human Lp-PLA2 (Homo sapiens, UniProt Q13093).
T2 sequence (Q13093 22-441): T1 sequence (Q13093 22-441)
Kind of assay: Recombinant human Lp-PLA2 assay (rhLp-PLA2, PED6 assay). Type of assay: biochemical. An excerpt:
(1) Recombinant Human Lp-PLA2 Assay (rhLp-PLA2) (Also Referred to as “PED6” Assay)
N-((6-(2,4-dinitrophenyl)amino)-hexanoyl)-2-(4,4-difluoro-5,7-dimethyl-4-bora-3a,4a-diaza-s-indacene-3-pentanoyl)-1-hexadecanoyl-sn-glycero-3-phosphoethanolamine, triethylammonium salt (PED6) is a commercially available fluorescently-labeled phospholipid, which is commercially available from Invitrogene and Molecular Probes. There is a quenching para-nitro phenyl (PNP) group in the sn3 position and a Bodipy fluorescein (FL) group in the sn2 position. Upon cleavage with Lp-PLA2, the Bodipy FL group is liberated and then may result in an increase in fluorescence. Inhibitors of Lp-PLA2 therefore prevent this cleavage and no fluorescent increase is observed.
The PED6 assay was run as an unquenched 10 μL assay. The source plate containing the compounds to be tested was prepared by making 1:3 (by volume) serial dilution of the compounds within DMSO on 384-well microplate. Then, 0.01 μL of the compounds on compound source plate were transferred into 384 well Greiner 784076 (black) plates using ECHO liquid dispenser. 5 μL of recombinant human Lp-PLA2 enzyme (4 nM (or 110 pM) rhLp-PLA2 in assay buffer of 50 mM HEPES, pH 7.4, 150 mM NaCl, 1 mM CHAPS) was added to each well of the plate. Plates were centrifuged for 10 sec at 500 rpm. After 30 minutes preincubation, 5 μL of substrate (4 μM (or 5 μM) PED6 [from 5 mM DMSO stock] in assay buffer of 50 mM HEPES, pH 7.4, 150 mM NaCl, 1 mM CHAPS) was added to 384 well Greiner 784076 (black) plates. Plates were centrifuged for 10 sec at 500 rpm. The plate was covered to protect it from light and incubated for 20 min at room temperature. The plates were read for fluorescence intensity at ex: 480/em: 540 using ViewLux microplate imager for Envision spectrofluroimeters. pIC50 data, curve and QC analysis was conducted by using XL fit module in Excel.

[2] abbreviates: read-out: pIC50 values in the recombinant human Lp-PLA2 assay (converted).

Experimental findings from patent US20150344485A1, “BICYCLIC PYRIMIDONE COMPOUNDS AS INHIBITORS OF LP-PLA2” (GLAXOSMITHKLINE INTELLECTUAL PROPERTY DEVELOPMENT LIMITED, priority 2013, published 2015) are described below.

Where two headings read alike, the source gives them in different places.

In the case of `C[C@H]1CCn2c(cc(OCc3ccc(Oc4ccc(F)c(C(F)(F)F)c4)cc3)nc2=O)N1C` [E84, (S)-8-((4-(4-fluoro-3-(trifluoromethyl)phenoxy)benzyl)oxy)-1,2-dimethyl-3,4-dihydro-1H-pyrimido[1,6-a]pyrimidin-6(2H)-one], the IC50 was not above 10 nM at Lp-PLA2 in human plasma and not above 1 nM in assay [1] (setting [2]).
Taken in the same sequence, the figures for `C[C@H]1CCn2c(cc(OCc3ccc(Oc4ccc(F)c(Cl)c4)c(C#N)c3)nc2=O)N1C` [E85, (S)-2-(3-chloro-4-fluorophenoxy)-5-(((1,2-dimethyl-6-oxo-2,3,4,6-tetrahydro-1H-pyrimido[1,6-a]pyrimidin-8-yl)oxy)methyl)benzonitrile] were not above 10 nM and not above 1 nM.
Turning to `C[C@H]1CCn2c(cc(OCc3ccc(Oc4ccc(F)c(F)c4)c(F)c3)nc2=O)N1C` [E86, (S)-8-((4-(3,4-difluorophenoxy)-3-fluorobenzyl)oxy)-1,2-dimethyl-3,4-dihydro-1H-pyrimido[1,6-a]pyrimidin-6(2H)-one], the IC50 at Lp-PLA2 in human plasma was not above 100 nM; in assay [1] (setting [2]), not above 1 nM.
Regarding `C[C@@H]1CCn2c(cc(OCc3ccc(Oc4ccc(F)c(C(F)(F)F)c4)cc3)nc2=O)N1C` [E87, (R)-8-((4-(4-fluoro-3-(trifluoromethyl)phenoxy)benzyl)oxy)-1,2-dimethyl-3,4-dihydro-1H-pyrimido[1,6-a]pyrimidin-6(2H)-one], the IC50 at Lp-PLA2 in human plasma was not above 10 nM; in assay [1] (setting [2]), not above 1 nM.
In the case of `CN1c2cc(OCc3cc(F)c(Oc4ccc(C(F)(F)F)nc4)c(F)c3)nc(=O)n2CCC1(C)C` [E88, 8-((3,5-difluoro-4-((6-(trifluoromethyl)pyridin-3-yl)oxy)benzyl)oxy)-1,2,2-trimethyl-3,4-dihydro-1H-pyrimido[1,6-a]pyrimidin-6(2H)-one], the IC50 at Lp-PLA2 in human plasma is not above 100 nM; in assay [1] (setting [2]), not above 1 nM.
The like results for `CN1c2cc(OCc3ccc(Oc4ccnc(C(F)(F)F)c4)c(F)c3)nc(=O)n2CCC1(C)C` [E89, 8-((3-fluoro-4-((2-(trifluoromethyl)pyridin-4-yl)oxy)benzyl)oxy)-1,2,2-trimethyl-3,4-dihydro-1H-pyrimido[1,6-a]pyrimidin-6(2H)-one] were, in that order, not above 10 nM and not above 1 nM.
In the case of `C[C@H]1CCn2c(cc(OCc3cc(F)c(Oc4ccc(F)c(F)c4)c(F)c3)nc2=O)N1C` [E90, (S)-8-((4-(3,4-difluorophenoxy)-3,5-difluorobenzyl)oxy)-1,2-dimethyl-3,4-dihydro-1H-pyrimido[1,6-a]pyrimidin-6(2H)-one], the results for the IC50 (at Lp-PLA2 in human plasma; in assay [1] (setting [2])) were not above 10 nM and not above 1 nM, respectively.
For the compound `C[C@H]1CCn2c(cc(OCc3ccc(Oc4cccc(C(F)(F)F)c4)c(F)c3)nc2=O)N1C` [E91, (S)-8-((3-fluoro-4-(3-(trifluoromethyl)phenoxy)benzyl)oxy)-1,2-dimethyl-3,4-dihydro-1H-pyrimido[1,6-a]pyrimidin-6(2H)-one], the IC50 is not above 10 nM at Lp-PLA2 in human plasma and not above 1 nM in assay [1] (setting [2]).
For `C[C@H]1CCn2c(cc(OCc3ccc(Oc4cccc(F)c4)c(C#N)c3)nc2=O)N1C` [E92, (S)-5-(((1,2-dimethyl-6-oxo-2,3,4,6-tetrahydro-1H-pyrimido[1,6-a]pyrimidin-8-yl)oxy)methyl)-2-(3-fluorophenoxy)benzonitrile], the IC50 is not above 10 nM at Lp-PLA2 in human plasma and not above 1 nM in assay [1] (setting [2]).
For `C[C@H]1CCn2c(cc(OCc3ccc(Oc4ccc(C(F)(F)F)cc4)c(F)c3)nc2=O)N1C` [E93, (S)-8-((3-fluoro-4-(4-(trifluoromethyl)phenoxy)benzyl)oxy)-1,2-dimethyl-3,4-dihydro-1H-pyrimido[1,6-a]pyrimidin-6(2H)-one], the results for the IC50 (on Lp-PLA2 in human plasma; in assay [1] (setting [2])) were not above 10 nM and not above 1 nM, respectively.
For the compound `C[C@H]1CCn2c(cc(OCc3cc(F)c(Oc4ccc(F)cc4)c(F)c3)nc2=O)N1C` [E94, (S)-8-((3,5-difluoro-4-(4-fluorophenoxy)benzyl)oxy)-1,2-dimethyl-3,4-dihydro-1H-pyrimido[1,6-a]pyrimidin-6(2H)-one], the IC50 is not above 100 nM at Lp-PLA2 in human plasma and not above 1 nM in assay [1] (setting [2]).
Taken in the same sequence, the figures for `C[C@H]1CCn2c(cc(OCc3cc(F)c(Oc4ccc(Cl)cc4)c(F)c3)nc2=O)N1C` [E95, (S)-8-((4-(4-chlorophenoxy)-3,5-difluorobenzyl)oxy)-1,2-dimethyl-3,4-dihydro-1H-pyrimido[1,6-a]pyrimidin-6(2H)-one] were not above 100 nM and not above 1 nM.
For the compound `C[C@H]1CCn2c(cc(OCc3cc(F)c(Oc4cccc(F)c4)c(F)c3)nc2=O)N1C` [E96], the IC50 on Lp-PLA2 in human plasma is not above 100 nM; in assay [1] (setting [2]) it was not above 1 nM.
With `C[C@@H]1CCn2c(cc(OCc3cc(F)c(Oc4cnc(C(F)(F)F)nc4)c(F)c3)nc2=O)N1C` [E97, (R)-8-((3,5-difluoro-4-((2-(trifluoromethyl)pyrimidin-5-yl)oxy)benzyl)oxy)-1,2-dimethyl-3,4-dihydro-1H-pyrimido[1,6-a]pyrimidin-6(2H)-one], the IC50 was not above 10 nM at Lp-PLA2 in human plasma, not above 1 nM in assay [1] (setting [2]) and 0.1 nM in assay [1] (read-out: rhLp-PLA2 (PED6 assay) (pIC50) (converted)).
Regarding `C[C@H]1CCn2c(cc(OCc3ccc(Oc4cccc(C(F)(F)F)c4)c(C#N)c3)nc2=O)N1C` [E98, (S)-5-(((1,2-dimethyl-6-oxo-2,3,4,6-tetrahydro-1H-pyrimido[1,6-a]pyrimidin-8-yl)oxy)methyl)-2-(3-(trifluoromethyl)phenoxy)benzonitrile], the figures for the IC50 (at Lp-PLA2 in human plasma; in assay [1] (setting [2])) were not above 10 nM and not above 1 nM, respectively.
On to `C[C@H]1CCn2c(cc(OCc3ccc(Oc4ccc(F)c(F)c4)c(C#N)c3)nc2=O)N1C` [E99, (S)-2-(3,4-difluorophenoxy)-5-(((1,2-dimethyl-6-oxo-2,3,4,6-tetrahydro-1H-pyrimido[1,6-a]pyrimidin-8-yl)oxy)methyl)benzonitrile], for which the IC50 was not above 10 nM on Lp-PLA2 in human plasma and not above 1 nM in assay [1] (setting [2]).
As for `C[C@@H]1CCn2c(cc(OCc3cc(F)c(Oc4ccc(F)c(F)c4)c(F)c3)nc2=O)N1C` [E101, (R)-8-((4-(3,4-difluorophenoxy)-3,5-difluorobenzyl)oxy)-1,2-dimethyl-3,4-dihydro-1H-pyrimido[1,6-a]pyrimidin-6(2H)-one], the values for the IC50 (at Lp-PLA2 in human plasma; in assay [1] (setting [2])) were not above 10 nM and not above 1 nM, respectively.
Taken in the same sequence, the figures for `C[C@@H]1CCn2c(cc(OCc3ccc(Oc4cccc(F)c4)c(C#N)c3)nc2=O)N1C` [E102, (R)-5-(((1,2-dimethyl-6-oxo-2,3,4,6-tetrahydro-1H-pyrimido[1,6-a]pyrimidin-8-yl)oxy)methyl)-2-(3-fluorophenoxy)benzonitrile] were not above 10 nM and not above 1 nM.
As to `C[C@@H]1CCn2c(cc(OCc3cc(F)c(Oc4cccc(F)c4)c(F)c3)nc2=O)N1C` [E103, (R)-8-((3,5-difluoro-4-(3-fluorophenoxy)benzyl)oxy)-1,2-dimethyl-3,4-dihydro-1H-pyrimido[1,6-a]pyrimidin-6(2H)-one], the IC50 at Lp-PLA2 in human plasma is not above 100 nM; in assay [1] (setting [2]), not above 1 nM.
On to `C[C@H]1CCn2c(cc(OCc3cc(F)c(Oc4cnc(C(F)(F)F)nc4)c(F)c3)nc2=O)N1C` [E104, (S)-8-((3,5-difluoro-4-((2-(trifluoromethyl)pyrimidin-5-yl)oxy)benzyl)oxy)-1,2-dimethyl-3,4-dihydro-1H-pyrimido[1,6-a]pyrimidin-6(2H)-one], for which the figures for the IC50 (on Lp-PLA2 in human plasma; in assay [1] (setting [2])) were not above 100 nM and not above 1 nM, respectively.
With `C[C@H]1CCn2c(cc(OCc3ccc(Oc4ccc(C(F)(F)F)c(F)c4)cc3)nc2=O)N1C` [E105, (S)-8-((4-(3-fluoro-4-(trifluoromethyl)phenoxy)benzyl)oxy)-1,2-dimethyl-3,4-dihydro-1H-pyrimido[1,6-a]pyrimidin-6(2H)-one], the figures for the IC50 (on Lp-PLA2 in human plasma; in assay [1] (setting [2])) were not above 100 nM and not above 1 nM, respectively.
